# Reference: US12679802B2, “Malonamides and their use as herbicides” (BASF SE, priority 2021, dated 2026)
# How the values were obtained:
# [1] = system: AVEFA; test: greenhouse herbicidal test, post-emergence treatment; assay type: in vivo, Avena fatua; details: post-emergence method, scale from 0 to 100
# Source text: (§1) The seeds of the test plants were sown separately for each species. For the pre-emergence treatment, the active ingredients, which had been suspended or emulsified in water, were applied directly after sowing by means of finely distributing nozzles. The containers were irrigated gently to promote germination and growth and subsequently covered with transparent plastic hoods until the test plants had rooted. This cover caused uniform germination of the test plants, unless this had been impaired by the active ingredients. For the post-emergence treatment, the test plants were first grown to a height of 3 to 15 cm, depending on the plant habit, and only then treated with the active ingredients which had been suspended or emulsified in water. For this purpose, the test plants were either sown directly and grown in the same containers, or they were first grown separately as seedlings and transplanted into the test containers a few days prior to treatment. Depending on the species, the test plants were kept at 10-25° C. or 20-35° C., respectively. The test period extended over 2 to 4 weeks. During this time, the test plants were tended, and their response to the individual treatments was evaluated. Evaluation was carried out using a scale from 0 to 100. 100 means no emergence of the test plants, or complete destruction of at least the aerial moieties, and 0 means no damage, or normal course of growth. A good herbicidal activity is given at values of 65 to 90 and a very good herbicidal activity is given at values of 90 to 100. The test plants used in the greenhouse experiments were of the following species: [table]
# [2] = system: APESV; test: greenhouse herbicidal test, pre-emergence treatment; assay type: in vivo, Apera spica-venti; details: pre-emergence method, scale from 0 to 100
# Source text: as §1, with “100 means no emergence of the test plants, or complete destruction of at least the aerial moieties, and 0 means no damage, or normal course of growth. A good herbicidal activity is given at values of 65 to 90 and a very good herbicidal activity is given at values of 90 to 100. The test plants used in the greenhouse experiments were of the following species: [table]” left out
# [3] = system: ECHCG; test: as above; assay type: in vivo, Echinocloa crus-galli; details: pre-emergence method, scale from 0 to 100
# Source text: as §1, with “100 means no emergence of the test plants, or complete destruction of at least the aerial moieties, and 0 means no damage, or normal course of growth. A good herbicidal activity is given at values of 65 to 90 and a very good herbicidal activity is given at values of 90 to 100. The test plants used in the greenhouse experiments were of the following species: [table]” left out
# [4] = system: ALOMY; test: greenhouse herbicidal test, post-emergence treatment; assay type: in vivo, Alopercurus myosuroides; details: post-emergence method, scale from 0 to 100
# Source text: as §1, with “100 means no emergence of the test plants, or complete destruction of at least the aerial moieties, and 0 means no damage, or normal course of growth. A good herbicidal activity is given at values of 65 to 90 and a very good herbicidal activity is given at values of 90 to 100. The test plants used in the greenhouse experiments were of the following species: [table]” left out
# [5] = system: ABUTH; test: as above; assay type: in vivo, Abutilon theophrasti; details: post-emergence method, application rate 0.250 kg/ha; scale from 0 to 100
# Source text: as §1, with “100 means no emergence of the test plants, or complete destruction of at least the aerial moieties, and 0 means no damage, or normal course of growth. A good herbicidal activity is given at values of 65 to 90 and a very good herbicidal activity is given at values of 90 to 100. The test plants used in the greenhouse experiments were of the following species: [table]” left out
# [6] = system: AMARE; test: as above; assay type: in vivo, Amaranthus retroflexus; details: post-emergence method, application rate 0.500 kg/ha; scale from 0 to 100
# Source text: as §1, with “100 means no emergence of the test plants, or complete destruction of at least the aerial moieties, and 0 means no damage, or normal course of growth. A good herbicidal activity is given at values of 65 to 90 and a very good herbicidal activity is given at values of 90 to 100. The test plants used in the greenhouse experiments were of the following species: [table]” left out
# [7] = system: ECHCG; test: as above; assay type: in vivo, Echinocloa crus-galli; details: post-emergence method, application rate 1.000 kg/ha; scale from 0 to 100
# Source text: as §1, with “100 means no emergence of the test plants, or complete destruction of at least the aerial moieties, and 0 means no damage, or normal course of growth. A good herbicidal activity is given at values of 65 to 90 and a very good herbicidal activity is given at values of 90 to 100. The test plants used in the greenhouse experiments were of the following species: [table]” left out
# [8] = system: SETVI; test: as above; assay type: in vivo, Setaria viridis; details: post-emergence method, application rate 1.000 kg/ha; scale from 0 to 100
# Source text: as §1, with “100 means no emergence of the test plants, or complete destruction of at least the aerial moieties, and 0 means no damage, or normal course of growth. A good herbicidal activity is given at values of 65 to 90 and a very good herbicidal activity is given at values of 90 to 100. The test plants used in the greenhouse experiments were of the following species: [table]” left out
structure (smiles),measurement,setting,value
"COC(=O)CCCNC(=O)C(F)(F)C(=O)Nc1cc(Cl)cc(Cl)c1 [I.1, methyl 4-[[3-(3,5-dichloroanilino)-2,2-difluoro-3-oxo-propanoyl]amino]butanoate]",herbicidal activity against AVEFA,[1]; application rate 0.500 kg/ha,good (A good herbicidal activity is given at values of 65 to 90)
"COC(=O)C[C@H](C)NC(=O)C(F)(F)C(=O)Nc1cc(Cl)cc(Cl)c1 [I.2, methyl (3S)-3-[[3-(3,5-dichloroanilino)-2,2-difluoro-3-oxo-propanoyl]amino]butanoate]",herbicidal activity against APESV,[2]; application rate 0.500 kg/ha,good (A good herbicidal activity is given at values of 65 to 90)
"COC(=O)[C@@H]1CCC(NC(=O)C(F)(F)C(=O)Nc2cc(Cl)cc(Cl)c2)C1 (stereo partly drawn) [I.3, methyl (1R)-3-[[3-(3,5-dichloroanilino)-2,2-difluoro-3-oxo-propanoyl]amino]cyclopentanecarboxylate]",herbicidal activity against ECHCG,[3]; application rate 0.250 kg/ha,good (A good herbicidal activity is given at values of 65 to 90)
same,herbicidal activity against ALOMY,[4]; application rate 0.250 kg/ha,very good (a very good herbicidal activity is given at values of 90 to 100)
same,herbicidal activity against ABUTH,[5],good (A good herbicidal activity is given at values of 65 to 90)
"COC(=O)C[C@H](C)NC(=O)C(F)C(=O)Nc1cc(Cl)cc(Cl)c1 (stereo partly drawn) [I.5, methyl (3S)-3-[[3-(3,5-dichloroanilino)-2-fluoro-3-oxo-propanoyl]amino]butanoate]",herbicidal activity against ECHCG,[3]; application rate 1.000 kg/ha,good (A good herbicidal activity is given at values of 65 to 90)
same,herbicidal activity against ALOMY,[4]; application rate 1.000 kg/ha,very good (a very good herbicidal activity is given at values of 90 to 100)
same,herbicidal activity against AVEFA,[1]; application rate 1.000 kg/ha,good (A good herbicidal activity is given at values of 65 to 90)
COC(=O)CC(C)NC(=O)C(F)(C(=O)Nc1cc(Cl)cc(Cl)c1)C(C)O (stereo not shown) [I.6],herbicidal activity against AMARE,[6],very good (a very good herbicidal activity is given at values of 90 to 100)
COC(=O)CC(C)NC(=O)C(F)(Br)C(=O)Nc1cc(Cl)cc(Cl)c1 (stereo not shown) [I.12],herbicidal activity against AVEFA,[1]; application rate 1.000 kg/ha,very good (a very good herbicidal activity is given at values of 90 to 100)
same,herbicidal activity against ECHCG,[7],very good (a very good herbicidal activity is given at values of 90 to 100)
same,herbicidal activity against SETVI,[8],very good (a very good herbicidal activity is given at values of 90 to 100)
CC(CC(=O)OC(C)C)NC(=O)C(C)(F)C(=O)Nc1cc(F)cc(Cl)c1 (stereo not shown) [I.16],herbicidal activity against APESV,[2]; application rate 0.250 kg/ha,good (A good herbicidal activity is given at values of 65 to 90)
